Entries after “also recorded” stand apart in the source; their conditions may differ.
Key:
Format in all cases: physicochemical
bevacizumab = assay: Stability of dialyzed, pre-stressed bevacizumab alone and with AMP, percentage of monomers by AFFF-MALS
Method: A 50 mM phosphate buffer pH 7.0 was used. The buffer choice was based on a pH range and buffer capacity that is physiologically tolerated and that is acceptable for the stability of antibodies. […] Samples were analyzed directly after preparation (t0) and after 7, 14 and 28 days. The aggregation state of the antibodies was measured by multi-angle light scattering (MALS) after separation by asymmetrical flow field-flow fractionation (AFFF). […] Data were collected and analysed with the Astra software (Wyatt Technology Europe GmbH, Dernbach, Germany). The aggregation state was expressed as the percentage of monomers versus time.

Avastin® [1] = assay: Effect of AMP on the unmodified commercial bevacizumab formulation (Avastin®), stability by AFFF-MALS; conditions: 40° C., 28 days, p<0.05
Method: All samples were stored at 40° C. during 28 days. Samples were analyzed directly after preparation (t0) and after 7, 14 and 28 days. The aggregation state of the antibodies was measured by multi-angle light scattering (MALS) after separation by asymmetrical flow field-flow fractionation (AFFF). […] Data were collected and analysed with the Astra software (Wyatt Technology Europe GmbH, Dernbach, Germany). The aggregation state was expressed as the percentage of monomers versus time.
All samples are stored at a temperature of 40° C. for 28 days and the stability is measured as described in Example 3 and compared to a sample of Avastin® alone stored under the same conditions.

Avastin® [2] = assay: Stability of pre-stressed Avastin® with ATP, GMP or sucrose phosphate, by AFFF-MALS; conditions: for stabilization of Avastin® across molar ratios: Avastin®:compound 1:1, 1:10 and 1:100, pre-stressed, PBS pH 7.0, 40° C., up to 28 days; for Short-term effects on the antibody, compared among ATP, GMP and sucrose phosphate: short term after addition
Method: All samples were stored at 40° C. during 28 days. […] The aggregation state of the antibodies was measured by multi-angle light scattering (MALS) after separation by asymmetrical flow field-flow fractionation (AFFF). […] Data were collected and analysed with the Astra software (Wyatt Technology Europe GmbH, Dernbach, Germany). The aggregation state was expressed as the percentage of monomers versus time.
After pre-stressing, Avastin® samples were combined with either ATP, GMP or sucrose phosphate at three Avastin®: compound of formula (I) molar ratios (1:1, 1:10 and 1:100). All samples are stored at a temperature of 40° C. for 28 days and stability is measured as described in Example 3 and compared to a sample of Avastin® alone stored under the same conditions. For GMP, a dilution of GMP was made in PBS pH 7.0 and pH was adjusted to 7.0 before the combination with Avastin® to prevent the risk of higher order aggregates caused by the addition of NaOH directly to the antibody formulation.

[3] = molar ratio 1:1, t1 (1 day at 40° C.)
[4] = molar ratio 1:10, t1 (1 day at 40° C.)
[5] = molar ratio 1:100, t1 (1 day at 40° C.)

| Compound | percentage of monomers (bevacizumab; formulations of bevacizumab with AMP (1:153 by context), 14 days at 40° C., pH 7.0, n=3) | percentage of monomers (bevacizumab; molar ratio bevacizumab:AMP 1:1.53, 14 days at 40° C., pH 7.0) | percentage of monomers (bevacizumab; molar ratio bevacizumab:AMP 1:1.53, 28 days at 40° C., pH 7.0, n=3) | percentage of monomers (bevacizumab; molar ratio bevacizumab:AMP 1:15.3, 14 days at 40° C., pH 7.0) | percentage of monomers (bevacizumab; molar ratio bevacizumab:AMP 1:15.3, 28 days at 40° C., pH 7.0, n=3) | percentage of monomers (bevacizumab; molar ratio bevacizumab:AMP 1:153, 28 days at 40° C., pH 7, n=3) | stabilization of the antibody (increase in monomers) versus Avastin® alone (Avastin® [1]; Avastin®:AMP 1:10) | stabilization of the antibody (increase in monomers) versus Avastin® alone (Avastin® [1]; Avastin®:AMP 1:100) | stabilization of Avastin® across molar ratios (Avastin® [2]) | aggregation breaker strength in experiments (Avastin® [2]; compared with AMP) | stabilizing effect versus Avastin® alone (Avastin® [2]; [3]) | stabilizing effect versus Avastin® alone (Avastin® [2]; [4]) | stabilizing effect versus Avastin® alone (Avastin® [2]; [5]) | stabilizing effect versus Avastin® alone (Avastin® [2]; molar ratio 1:100, t28 (28 days at 40° C.)) | Short-term effects on the antibody, compared among ATP, GMP and sucrose phosphate (Avastin® [2]) | stabilizing properties, compared among ATP, GMP and sucrose phosphate (Avastin® [2]; after 28 days of storage at 40° C.) |
| --- | --- | --- | --- | --- | --- | --- | --- | --- | --- | --- | --- | --- | --- | --- | --- | --- |
| Nc1ncnc2c1ncn2[C@@H]1O[C@H](COP(=O)(O)O)[C@@H](O)[C@H]1O [AMP, adenosine 5′-monophosphate] | higher than 94% | higher than 80% | higher than 76% | higher than 80% | higher than 76% | around 90% | significant stabilization is observed at t1, t14 and t28 | such a stabilization is observed only at longer incubation times (t14 and t28) |  |  |  |  |  |  |  |  |
| Nc1ncnc2c1ncn2[C@@H]1O[C@H](COP(=O)(O)OP(=O)(O)OP(=O)(O)O)[C@@H](O)[C@H]1O [ATP, adenosine 5′-triphosphate] |  |  |  |  |  |  |  |  | concentration dependent stabilization | less strong breaker than AMP | stabilizing effect is observed | stabilizing effect is observed | stabilizing effect is observed | significant stabilizing effect | most pronounced |  |
| sucrose phosphate |  |  |  |  |  |  |  |  | concentration-dependent stabilization; also recorded: concentration-dependent stabilizing effect continues up to 28 days |  | stabilizing effect is observed | stabilizing effect is observed | stabilizing effect is observed |  | most pronounced |  |
| Nc1nc2c(ncn2[C@@H]2O[C@H](COP(=O)(O)O)[C@@H](O)[C@H]2O)c(=O)[nH]1 [GMP, guanosine 5′-monophosphate] |  |  |  |  |  |  |  |  | concentration dependent stabilization |  | destabilizing | destabilizing | shows an ability to stabilize the antibody |  |  | most distinct stabilizing properties |

— patent US20130028920A1, “STABILIZED ANTIBODY PREPARATIONS AND USES THEREOF” (UNIVERSITE DE GENEVE, priority 2010, published 2013)
